From US20220305144A1, “RADIOLIGANDS FOR IMAGING THE ID01 ENZYME” (Bristol-Myers Squibb Company, priority 2016, published 2022)
“Also recorded” adds a separate entry of the source.

How the values were obtained:
IDO1 [1] = biological target: T1, IDO1 (Mus musculus, UniProt P28776); assay: In-vivo PET imaging in M109 xenograft mice after treatment with the unlabeled IDO1 inhibitor (Example 6); conditions: 6, 60, 150 mg/kg PO once daily for 4 or 5 days
T1 construct: The M109 tumor model is generated from a murine lung carcinoma cell line and expresses high levels of IDO1; from tissue; host or cells: subcutaneous M109 (murine lung carcinoma) tumours in BALB/c mice, imaged in vivo
T1 sequence (P28776 whole entry): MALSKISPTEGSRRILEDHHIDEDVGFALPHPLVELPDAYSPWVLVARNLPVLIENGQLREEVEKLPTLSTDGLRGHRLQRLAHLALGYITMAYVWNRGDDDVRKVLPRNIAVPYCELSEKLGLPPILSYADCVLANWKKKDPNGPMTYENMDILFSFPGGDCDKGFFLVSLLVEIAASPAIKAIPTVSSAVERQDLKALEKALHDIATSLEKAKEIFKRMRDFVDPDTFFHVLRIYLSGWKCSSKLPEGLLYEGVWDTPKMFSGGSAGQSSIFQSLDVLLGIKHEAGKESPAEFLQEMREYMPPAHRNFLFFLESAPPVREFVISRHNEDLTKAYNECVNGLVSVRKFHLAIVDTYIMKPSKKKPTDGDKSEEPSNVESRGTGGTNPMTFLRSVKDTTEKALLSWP
Procedure: Dosing and treatment was established based on known pharmacological effect and treatment was administered PO, once daily, for 4 or 5 days. All animals were received a PET scan post-treatment with the last dose of (R)—N-(4-chlorophenyl)-2-((1S,4)-4-(6-fluoroquinolin-4-yl)cyclohexyl)propanamide or vehicle administered 2 hours before PET imaging. […] The exact injected dose was calculated by subtracting the decay corrected activity of the residual in the syringe after injection from the total measured dose in the syringe prior to injection. For PET imaging, the mice were anesthetized with isoflurane and placed into a custom animal holder with capacity for 4 animals. Body temperature was maintained with a heating pad and anesthesia was maintained with 1.5% isoflurane for the duration of the imaging PET imaging was performed on a dedicated microPET® F120™ scanner and a F220™ scanner (Siemens Preclinical Solutions, Knoxville, Tenn.). A 10 minute transmission scan was performed using a ^57Co source for attenuation correction of the final PET images and followed by a 10 min static emission scan. Either before or after PET imaging a CT scan (X-SPECT, Gamma Medica) or MRI scan (Bruker) was performed for anatomical orientation during image analysis. PET images were reconstructed using a maximum a posteriori (MAP) algorithm with attenuation correction using the collected transmission images. Image analysis was performed using the image analysis software AMIDE PET images were co-registered with their corresponding CT or MRI images and regions of interest (ROIs) were manually drawn around tumor boundaries and muscle using the CT or MRI images as the anatomical guidelines. The outcome measure percentage injected dose/g tissue (% ID/g) was obtained from the ROIs volume and the calculated injected activity decay corrected to the beginning of the emission scan.

IDO1 [2] = biological target: T1, IDO1; assay: In-vivo PET imaging in M109 xenograft mice at baseline and after treatment with an IDO1 inhibitor (Example 7); conditions: 6, 60, 150 mg/kg PO once daily for 5 days
Procedure: All mice underwent 2 separate PET scans. The first was a baseline PET scan before treatment began and the second was a post treatment scan with either the IDO1 inhibitor or vehicle. Treatment was administered PO once daily for 5 days with the last dose administered 2 hours prior to the post-treatment PET scan. […] There were no difference in tracer uptake at baseline in the M109 tumors between any of the groups.

[3] = PET biodistribution in non-human primate (Example 9); assay type: in vivo; conditions: male cynomolgus monkey, 1.2 mCi i.v., 5 full body PET scans
Procedure: A male cynomolgus monkey (3.5 kg) was anesthetized via a cocktail of 0.02 mg/kg Atropine, and 5 mg/kg Telazol, 0.01 mg/kg Buprenorphine and maintained with 1-2% isoflurane for the duration of the study. Body temperature was maintained at ˜37° C. using an external circulating water bed to prevent hypothermia during imaging. The monkey was intubated and a saphenous vein catheter was inserted to allow for radiotracer injection. […] The axial field of view in the PET system is 7.6 cm. With this limitation, images were acquired over 7 distinct bed positions to cover the full body with an overlap of 1.5 cm between beds. Prior to emission imaging a 10 minute transmission image was acquired for each bed position for attenuation correction of the final PET images, immediately following collection of the final transmission image, the bed was returned to position 1 and the radiotracer was injected via the saphenous vein catheter concurrently with the start of the first emission scan. For emission, a total of 5 full body scans were acquired, using 5 min emission acquisitions for each bed position. Images were reconstructed using a MAP algorithm with attenuation correction. Bed positions were stitched together for a full body image using a stitching software tool developed in house and PET and MRI images were co-registered using AMIDE software. The final images were visually inspected to note areas of high tracer accumulation and evaluate biodistribution and background signal.

IDO1 [4] = biological target: T1, IDO1; assay: Comparison of tracer uptake in high (M109) and low (CT26) IDO1 expressing tumor models (Example 8); assay type: in vivo; conditions: BALB/c mice given vehicle for 5 days, tracer i.v. 1 hour before PET, CT26 low IDO1 expression
Excerpt: In order to compare the ability to differentiate between differences in expression levels of IDO1 we imaged an additional mouse model carrying CT26 tumors. The CT26 tumor model is generated from a murine colorectal carcinoma cell line and expresses lower levels of IDO1 than the M109 model.

[5] = listed as 18F—(R)—N-(4-chlorophenyl)-2-((1S,4S)-4-(6-fluoroquinolin-4-yl)cyclohexyl)propan
[6] = listed as [^18F](R)—N-(4-chlorophenyl)-2-((1S,4S)-4-(6-fluoroquinolin-4-yl)cyclohexyl)prop

SMILES	Tracer uptake (% ID/g) in M109 tumors compared to vehicle (IDO1 [1]; last dose 2 hours before PET, [18F] tracer i.v. 1 hour before imaging)	Tracer uptake in muscle reference tissue (IDO1 [1]; muscle used as reference region for non-specific binding)	Tracer uptake in muscle reference tissue, baseline vs post-treatment (IDO1 [2])	Tracer uptake in M109 tumors after treatment, compared to vehicle group and baseline (IDO1 [2]; last dose 2 hours before post-treatment PET scan)	Areas of tracer accumulation (biodistribution) [3, 5]	Background signal in the rest of the body [3, 5]	Areas of tracer accumulation (biodistribution) [3, 6]	Background signal in the rest of the body [3, 6]	Tracer uptake (% ID/g) in M109 tumors compared to CT26 tumors (IDO1 [4])
C[C@@H](C(=O)Nc1ccc(Cl)cc1)C1CCC(c2ccnc3ccc(F)cc23)CC1 (stereo partly drawn) [(R)—N-(4-chlorophenyl)-2-((1S,4S)-4-(6-fluoroquinolin-4-yl)cyclohexyl)propanamide]	dose-dependent decrease in tracer uptake; also recorded: dose-dependent displacement of the tracer	no effect on the tracer; also recorded: no effect on the uptake in muscle tissue	unaffected by treatment	dose-dependent decrease in tracer uptake; also recorded: dose-dependent displacement of the tracer	–	–	–	–	–
C[C@@H](C(=O)Nc1ccc(Cl)cc1)[C@H]1CC[C@@H](c2ccnc3ccc([18F])cc32)CC1 [Example 5, [^18F](R)—N-(4-chlorophenyl)-2-((1S, 4S)-4-(6-fluoroquinolin-4-yl)cyclohexyl)propanamide]	–	–	–	–	accumulated in expected clearance organs such as liver and gallbladder	little to no background	accumulated in the liver and gallbladder	minimal	higher % ID/g was observed in M109 mouse xenograft tumors compared to % ID/g in CT26 mouse xenograft tumors; also recorded: increased in M109 tumors
